# Test results as given in paper PMC5342389, “PIM kinases as therapeutic targets against advanced melanoma” (Oncotarget, 2016).
# Columns and labels:
# [1] = test system: collagen-embedded melanoma spheroids; experiment: LIVE/DEAD viability/cytotoxicity assay on 3D spheroids; conditions: SGI-1776 [5 μM] or AZD6482 [10 μM] as single agents or in combination, 72 h
# pAKTSer473 = experiment: Western blot for AZD6482 target inhibition; type: cell-based, human; conditions: increasing doses, 72 h
# Method: Since PIM kinases and AKT share common downstream effectors, we hypothesized that inhibiting both PIM and PI3K activity would prevent pathway compensation, enhance melanoma cell death compared to each single agent, and maintain low activity of AKT and STAT3.
# Supplementary Figure S5: AZD6482 target inhibition. Increasing doses of the PI3Kβ inhibitor AZD6482 were used to treat melanoma cells for 72 h before lysates were collected and probed for pAKTSer473 and total protein. Hsp90 was used as a loading control. […]
# combination. To facilitate statistical analysis of synergy effects, we used a grid-like design of constant ratio drug combinations. Viability was calculated relative to DMSO controls in each plate and the mean of three experiments provided. Synergy was calculated for combination experiments using the Bliss formula. […]
# observed combination effects. […]
# AML xenografts = conditions: cited from earlier work
# [2] = in vivo
# [3] = test system: 1205Lu, WM983B, and 451Lu; experiment: Western blot of adherent (2D) melanoma cells; type: cell-based, human; conditions: 10 μM, 12 h
# [4] = test system: Melanoma cells and normal fibroblasts; experiment: alamarBlue proliferation assay, adherent cultures, 72 h; type: cell-based, human; conditions: increasing doses, normalized to DMSO
# PIM1 = conditions: cited from earlier work
# 1205Lu tumors = experiment: Western blot of mouse tumor lysates; type: in vivo, mice; conditions: tumor lysates 17 days following treatment
# Description: Error bars represent SEM, n = 10 mice. […] Histone H3 served as loading control.
# We next determined the expression levels of PIM1, −2 and −3 in two mouse tumors from the in vivo combination experiment shown in Figure 6A. Tumor samples were collected following 3 days of treatment and PIM expression levels were not consistently changed across treatment groups; however, the presence of PLX4720 correlated with higher PIM2 levels (Figure 6B). To understand signaling changes leading to our observed drug response in vivo, western blot analyses were then conducted on tumor lysates isolated 17 days following treatment (Figure 6C).
# For immunoblots, proteins were extracted as described in [49], and 50 μg of cell extract were resolved on a 10% polyacrylamide-SDS gel before being transferred onto a polyvinylidene membrane (BioRad, Hercules, CA). All primary antibodies were purchased from Cell Signaling Technologies (Beverly, MA), except for the PIM1 antibody, which was purchased from Abcam (Cambridge, MA). All membranes were probed with primary antibodies overnight at 4°C, then incubated with Alexa Fluor-labeled secondary antibodies (IRDye 680LT goat-anti mouse, IRDye 800CW goat-anti rabbit (LI-COR, Lincoln, NE)) for 1h and scanned with the Odyssey system (LI-COR, Lincoln, NE). […]
# [5] = test system: Melanoma cell lines and normal fibroblasts; experiment: propidium iodide staining (cell death); type: cell-based; conditions: 10 μM, 72 h
compound,measurement,setting,value
Cc1cc([C@@H](C)Nc2ccccc2C(=O)O)c2nc(N3CCOCC3)cc(=O)n2c1 [AZD6482],spheroid invasion and cell death (LIVE/DEAD),[1],inhibit spheroid invasion and cause cell death
same,AKT inhibition (pAKTSer473),pAKTSer473,confirming AKT inhibition
CN1CCC(CNc2ccc3ncc(-c4cccc(OC(F)(F)F)c4)n3n2)CC1 [SGI-1776],spheroid invasion and cell death (LIVE/DEAD),[1],inhibit spheroid invasion and cause cell death
same,tumor regression,AML xenografts,concentration-dependent tumor regressions
same,total mouse weight / toxic effects,[2],minimal effects on total mouse weight
same,levels of downstream PIM kinase signaling effectors,[3],"downregulation of pBADS136, pSTAT3Y705, and pAKTS473 levels were observed"
same,"total levels of PIM1, −2, or −3",[3],does not dramatically reduce total levels
same,p27Kip1 levels,1205Lu tumors,elevated p27Kip1 levels
same,cell death / cytotoxicity (propidium iodide),[5],significantly increased cell death in the melanoma cell lines compared to normal fibroblasts
